Data on 17 compounds can be found in BindingDB's records for doi:10.1021/jm030424e (Isis Pharmaceuticals, 2004).

Each structure is given as a SMILES string. Bounds are passed on as bounds.

One may read the EC50 as the concentration giving half of the maximal effect.

This assay is described as follows: Inhibition HCV RNA replication.
`CO[C@@H]1[C@H](O)[C@@H](CO)O[C@H]1n1cnc2c(N)ncnc21`: the EC50 is over 50 µM.
The same measure for `C[C@@]1(O)[C@@H](CO)O[C@@H](n2cnc3c(N)ncnc32)[C@@H]1O`: over 50 µM; for `Nc1nc2c(ncn2[C@@H]2O[C@H](CO)[C@H](O)[C@H]2O)c(=O)[nH]1`: over 50 µM; for `C[C@]1(O)[C@@H](CO)O[C@@H](n2cnc3c(N)ncnc32)[C@@H]1O`: over 50 µM.
The same measure for `Nc1nc2c(ncn2[C@@H]2O[C@H](CO)[C@@H](O)[C@H]2F)c(=O)[nH]1` [2-Amino-9-((2R,3R,4R,5R)-3-fluoro-4-hydroxy-5-hydroxymethyl-tetrahydro-furan-2-yl)-1,9-dihydro-purin-6-one]: over 50 µM; for `CO[C@@H]1[C@H](O)[C@@H](CO)O[C@H]1n1cnc2c(=O)[nH]c(N)nc21` [2-Amino-9-((2R,3R,4R,5R)-4-hydroxy-5-hydroxymethyl-3-methoxy-tetrahydro-furan-2-yl)-1,9-dihydro-purin-6-one]: over 50 µM; for `Nc1nc2c(ncn2[C@@H]2O[C@H](CO)C[C@H]2O)c(=O)[nH]1` [2-Amino-9-((2R,3R,5S)-3-hydroxy-5-hydroxymethyl-tetrahydro-furan-2-yl)-1,9-dihydro-purin-6-one]: 50 µM.
The value for `Nc1nc2c(ncn2[C@@H]2O[C@H](CO)[C@@H](F)[C@H]2O)c(=O)[nH]1` [2-Amino-9-((2R,3S,4S,5R)-4-fluoro-3-hydroxy-5-hydroxymethyl-tetrahydro-furan-2-yl)-1,9-dihydro-purin-6-one] was over 50 µM; that for `C[C@@]1(O)[C@H](O)[C@@H](CO)O[C@H]1n1cnc2c(N)nc(N)nc21` [(2R,3R,4R,5R)-2-(2,6-diamino-9H-purin-9-yl)-5-(hydroxymethyl)-3-methyloxolane-3,4-diol] was 7 µM.
In turn, `C[C@@]1(O)[C@H](O)[C@@H](CO)O[C@H]1n1cnc2cnc(N)nc21` [(2R,3R,4R,5R)-2-(2-amino-9H-purin-9-yl)-5-(hydroxymethyl)-3-methyloxolane-3,4-diol] had an EC50 of over 50 µM.
The same measure for `CC[C@@]1(O)[C@H](O)[C@@H](CO)O[C@H]1n1cnc2c(N)ncnc21` [(2R,3R,4R,5R)-2-(6-amino-9H-purin-9-yl)-3-ethyl-5-(hydroxymethyl)oxolane-3,4-diol]: over 50 µM; for `C[C@@]1(O)[C@H](O)[C@@H](CO)O[C@H]1n1cnc2c(N)ncnc21` [(2R,3R,4R,5R)-2-(6-amino-9H-purin-9-yl)-5-(hydroxymethyl)-3-methyl-tetrahydrofuran-3,4-diol]: 0.3 µM; for `C[C@@]1(O)[C@H](O)[C@@H](CO)O[C@H]1n1cnc2c(=O)[nH]cnc21` [(2R,3R,4R,5R)-2-(6-hydroxy-9H-purin-9-yl)-5-(hydroxymethyl)-3-methyloxolane-3,4-diol]: over 50 µM.
`CO[C@]1(C)[C@H](O)[C@@H](CO)O[C@H]1n1cnc2c(N)ncnc21` [(2R,3R,4R,5R)-5-(6-amino-9H-purin-9-yl)-2-(hydroxymethyl)-4-methoxy-4-methyloxolan-3-ol] displayed a concentration giving a half-maximal response (EC50) of over 50 µM.
`C[C@@]1(O)[C@H](O)[C@@H](CO)O[C@H]1n1cnc2cncnc21` [(2R,3R,4R,5R)-5-(hydroxymethyl)-3-methyl-2-(9H-purin-9-yl)oxolane-3,4-diol] returned an EC50 of over 50 µM.
The value for `C[C@]1(O)[C@H](O)[C@@H](CO)O[C@H]1n1cnc2c(N)ncnc21` [(2R,3S,4R,5R)-2-(6-amino-9H-purin-9-yl)-5-(hydroxymethyl)-3-methyloxolane-3,4-diol] was over 50 µM; that for `Nc1ncnc2c1ncn2[C@@H]1O[C@H](CO)[C@@H](O)[C@@H]1O` [adenine arabinoside] was over 50 µM.
